Drawing on ChEMBL document CHEMBL3611972, “Leishmanicidal, antiproteolytic, and mutagenic evaluation of alkyltriazoles and alkylphosphocholines” (Eur J Med Chem, 2015), this text covers Activity and Activity_index for two compounds.

Data set [1] can be described thus: Mutagenicity in CHOK1 cells assessed as induction of chromosomal DNA mutation by measuring nuclear division index level at 6.41 to 25.63 incubated for 3 hrs by fluorescence microscopy. It counts as toxicity, cell-based, Cricetulus griseus. Conditions: chinese hamster, cho-k1, 3 h.
The test system of data set [2] is Salmonella typhimurium. Description: Mutagenicity in Salmonella typhimurium TA98 assessed as mutagenicity index at 150.98 uM/plate incubated for 90 mins at 37 degC in absence of liver S9 fractions by Ames test relative to untreated control. The format is toxicity, organism-based. Conditions: salmonella enterica subsp. enterica serovar typhimurium, 1.5 h. (In general: In the Ames test, an excess of revertant colonies over the control signals mutagenicity.)

Data set [3] has as its system Salmonella typhimurium. The data set can be described thus: Mutagenicity in Salmonella typhimurium TA98 assessed as mutagenicity index at 296.15 uM/plate incubated for 90 mins at 37 degC in absence of liver S9 fractions by Ames test relative to untreated control. The format is toxicity, organism-based. The conditions noted are these: salmonella enterica subsp. enterica serovar typhimurium, 1.5 h.

Data set [4] relates to Salmonella typhimurium. The data set can be described thus: Mutagenicity in Salmonella typhimurium TA98 assessed as mutagenicity index at 570.37 uM/plate incubated for 90 mins at 37 degC in absence of liver S9 fractions by Ames test relative to untreated control. The format is toxicity, organism-based. Conditions: salmonella enterica subsp. enterica serovar typhimurium, 1.5 h.

Data set [5] deals with Salmonella typhimurium. The data set can be described thus: Mutagenicity in Salmonella typhimurium TA98 assessed as mutagenicity index at 700.00 uM/plate incubated for 90 mins at 37 degC in absence of liver S9 fractions by Ames test relative to untreated control. It counts as toxicity, organism-based. Conditions: salmonella enterica subsp. enterica serovar typhimurium, 1.5 h.

Data set [6] concerns Salmonella typhimurium. The data set can be described thus: Mutagenicity in Salmonella typhimurium TA98 assessed as mutagenicity index at 150.98 uM/plate incubated for 90 mins at 37 degC in presence of liver S9 fractions by Ames test relative to untreated control. It counts as toxicity, organism-based. Conditions: salmonella enterica subsp. enterica serovar typhimurium, s9, 1.5 h.

The subject of data set [7] is Salmonella typhimurium. Description: Mutagenicity in Salmonella typhimurium TA98 assessed as mutagenicity index at 570.37 uM/plate incubated for 90 mins at 37 degC in presence of liver S9 fractions by Ames test relative to untreated control. Conditions: salmonella enterica subsp. enterica serovar typhimurium, s9, 1.5 h. It counts as toxicity, organism-based.
Data set [8] concerns Salmonella typhimurium. The data set can be described thus: Mutagenicity in Salmonella typhimurium TA100 assessed as mutagenicity index at 435.85 uM/plate incubated for 90 mins at 37 degC in absence of liver S9 fractions by Ames test relative to untreated control. The format is toxicity, organism-based. Conditions: salmonella enterica subsp. enterica serovar typhimurium, 1.5 h.

Data set [9] has as its system Salmonella typhimurium. Description: Mutagenicity in Salmonella typhimurium TA100 assessed as mutagenicity index at 700.00 uM/plate incubated for 90 mins at 37 degC in absence of liver S9 fractions by Ames test relative to untreated control. The format is toxicity, organism-based. The conditions noted are these: salmonella enterica subsp. enterica serovar typhimurium, 1.5 h.

Data set [10] relates to Salmonella typhimurium. Description: Mutagenicity in Salmonella typhimurium TA100 assessed as mutagenicity index at 150.98 uM/plate incubated for 90 mins at 37 degC in presence of liver S9 fractions by Ames test relative to untreated control. The format is toxicity, organism-based. Conditions: salmonella enterica subsp. enterica serovar typhimurium, s9, 1.5 h.
The subject of data set [11] is Salmonella typhimurium. The data set can be described thus: Mutagenicity in Salmonella typhimurium TA100 assessed as mutagenicity index at 296.15 uM/plate incubated for 90 mins at 37 degC in presence of liver S9 fractions by Ames test relative to untreated control. It counts as toxicity, organism-based. The conditions noted are these: salmonella enterica subsp. enterica serovar typhimurium, s9, 1.5 h.

Data set [12] concerns Salmonella typhimurium. Description: Mutagenicity in Salmonella typhimurium TA100 assessed as mutagenicity index at 570.37 uM/plate incubated for 90 mins at 37 degC in presence of liver S9 fractions by Ames test relative to untreated control. The format is toxicity, organism-based. Conditions: salmonella enterica subsp. enterica serovar typhimurium, s9, 1.5 h.
For data set [13], the system named is Salmonella typhimurium. Description: Mutagenicity in Salmonella typhimurium TA97a assessed as mutagenicity index at 435.85 uM/plate incubated for 90 mins at 37 degC in absence of liver S9 fractions by Ames test relative to untreated control. It counts as toxicity, organism-based. Conditions: salmonella enterica subsp. enterica serovar typhimurium, 1.5 h.
The subject of data set [14] is Salmonella typhimurium. Description: Mutagenicity in Salmonella typhimurium TA97a assessed as mutagenicity index at 570.37 uM/plate incubated for 90 mins at 37 degC in absence of liver S9 fractions by Ames test relative to untreated control. It counts as toxicity, organism-based. Conditions: salmonella enterica subsp. enterica serovar typhimurium, 1.5 h.
Data set [15] relates to Salmonella typhimurium. The data set can be described thus: Mutagenicity in Salmonella typhimurium TA97a assessed as mutagenicity index at 570.37 uM/plate incubated for 90 mins at 37 degC in presence of liver S9 fractions by Ames test relative to untreated control. It counts as toxicity, organism-based. The conditions noted are these: salmonella enterica subsp. enterica serovar typhimurium, s9, 1.5 h.

For data set [16], the system named is Salmonella typhimurium. The data set can be described thus: Mutagenicity in Salmonella typhimurium TA97a assessed as mutagenicity index at 700.00 uM/plate incubated for 90 mins at 37 degC in presence of liver S9 fractions by Ames test relative to untreated control. It counts as toxicity, organism-based. Conditions: salmonella enterica subsp. enterica serovar typhimurium, s9, 1.5 h.

Data set [17] relates to Salmonella typhimurium. The data set can be described thus: Mutagenicity in Salmonella typhimurium TA102 assessed as mutagenicity index at 150.98 uM/plate incubated for 90 mins at 37 degC in absence of liver S9 fractions by Ames test relative to untreated control. It counts as toxicity, organism-based. Conditions: salmonella enterica subsp. enterica serovar typhimurium, 1.5 h.

For data set [18], the system named is Salmonella typhimurium. The data set can be described thus: Mutagenicity in Salmonella typhimurium TA102 assessed as mutagenicity index at 570.37 uM/plate incubated for 90 mins at 37 degC in absence of liver S9 fractions by Ames test relative to untreated control. The format is toxicity, organism-based. Conditions: salmonella enterica subsp. enterica serovar typhimurium, 1.5 h.

Data set [19] deals with Salmonella typhimurium. Description: Mutagenicity in Salmonella typhimurium TA100 assessed as mutagenicity index at 313.73 uM/plate incubated for 90 mins at 37 degC in absence of liver S9 fractions by Ames test relative to control. The format is toxicity, organism-based. Conditions: salmonella enterica subsp. enterica serovar typhimurium, 1.5 h.
For data set [20], the system named is Salmonella typhimurium. Description: Mutagenicity in Salmonella typhimurium TA100 assessed as mutagenicity index at 905.66 uM/plate incubated for 90 mins at 37 degC in absence of liver S9 fractions by Ames test relative to control. The format is toxicity, organism-based. The conditions noted are these: salmonella enterica subsp. enterica serovar typhimurium, 1.5 h.

Data set [21] relates to Salmonella typhimurium. The data set can be described thus: Mutagenicity in Salmonella typhimurium TA100 assessed as mutagenicity index at 1185.19 uM/plate incubated for 90 mins at 37 degC in absence of liver S9 fractions by Ames test relative to control. It counts as toxicity, organism-based. Conditions: salmonella enterica subsp. enterica serovar typhimurium, 1.5 h.
The subject of data set [22] is Salmonella typhimurium. The data set can be described thus: Mutagenicity in Salmonella typhimurium TA100 assessed as mutagenicity index at 616.38 uM/plate incubated for 90 mins at 37 degC in presence of liver S9 fractions by Ames test relative to control. It counts as toxicity, organism-based. Conditions: salmonella enterica subsp. enterica serovar typhimurium, s9, 1.5 h.

The test system of data set [23] is Salmonella typhimurium. Description: Mutagenicity in Salmonella typhimurium TA100 assessed as mutagenicity index at 1185.19 uM/plate incubated for 90 mins at 37 degC in presence of liver S9 fractions by Ames test relative to control. The format is toxicity, organism-based. The conditions noted are these: salmonella enterica subsp. enterica serovar typhimurium, s9, 1.5 h.

Data set [24] has as its system Salmonella typhimurium. The data set can be described thus: Mutagenicity in Salmonella typhimurium TA97a assessed as mutagenicity index at 905.66 uM/plate incubated for 90 mins at 37 degC in absence of liver S9 fractions by Ames test relative to control. It counts as toxicity, organism-based. The conditions noted are these: salmonella enterica subsp. enterica serovar typhimurium, 1.5 h.

The subject of data set [25] is Salmonella typhimurium. The data set can be described thus: Mutagenicity in Salmonella typhimurium TA97a assessed as mutagenicity index at 313.73 uM/plate incubated for 90 mins at 37 degC in presence of liver S9 fractions by Ames test relative to control. It counts as toxicity, organism-based. Conditions: salmonella enterica subsp. enterica serovar typhimurium, s9, 1.5 h.

The test system of data set [26] is Salmonella typhimurium. Description: Mutagenicity in Salmonella typhimurium TA102 assessed as mutagenicity index at 313.73 uM/plate incubated for 90 mins at 37 degC in absence of liver S9 fractions by Ames test relative to control. It counts as toxicity, organism-based. Conditions: salmonella enterica subsp. enterica serovar typhimurium, 1.5 h.
The subject of data set [27] is Salmonella typhimurium. Description: Mutagenicity in Salmonella typhimurium TA102 assessed as mutagenicity index at 616.38 uM/plate incubated for 90 mins at 37 degC in absence of liver S9 fractions by Ames test relative to control. The conditions noted are these: salmonella enterica subsp. enterica serovar typhimurium, 1.5 h. The format is toxicity, organism-based.

Data set [28] relates to Salmonella typhimurium. The data set can be described thus: Mutagenicity in Salmonella typhimurium TA102 assessed as mutagenicity index at 905.66 uM/plate incubated for 90 mins at 37 degC in absence of liver S9 fractions by Ames test relative to control. The format is toxicity, organism-based. The conditions noted are these: salmonella enterica subsp. enterica serovar typhimurium, 1.5 h.

Data set [29] deals with Salmonella typhimurium. The data set can be described thus: Mutagenicity in Salmonella typhimurium TA102 assessed as mutagenicity index at 905.66 uM/plate incubated for 90 mins at 37 degC in presence of liver S9 fractions by Ames test relative to control. It counts as toxicity, organism-based. The conditions noted are these: salmonella enterica subsp. enterica serovar typhimurium, s9, 1.5 h.

Data set [30] concerns Salmonella typhimurium. The data set can be described thus: Mutagenicity in Salmonella typhimurium TA102 assessed as mutagenicity index at 1185.19 uM/plate incubated for 90 mins at 37 degC in presence of liver S9 fractions by Ames test relative to control. The format is toxicity, organism-based. The conditions noted are these: salmonella enterica subsp. enterica serovar typhimurium, s9, 1.5 h.

Data set [31] can be described thus: Mutagenicity in CHOK1 cells assessed as induction of chromosomal DNA mutation by measuring micronuclei level at 14.51 to 58.04 incubated for 3 hrs by cytokinesis-block micronucleus assay. The format is toxicity, cell-based, Cricetulus griseus. The conditions noted are these: chinese hamster, cho-k1, 3 h.

For the compound `CS(=O)(=O)OCCCCCCCCCCCCn1cc(CCCO)nn1`, the Activity result in data set [1] is “Non-toxic”. In addition, the Activity_index is recorded as 1 in the data set on Salmonella typhimurium [2]; 1.2 in the data set with Salmonella typhimurium [3]; 1.3 with Salmonella typhimurium [4]; 1.3 in the data set on Salmonella typhimurium [5]; 1.1 in the data set on Salmonella typhimurium [6]; 0.8 in the data set on Salmonella typhimurium [7]. In addition, the Activity_index with Salmonella typhimurium [8] came to 1.2; in the data set with Salmonella typhimurium [9], 1; in the data set on Salmonella typhimurium [10] it was 0.9; in the data set with Salmonella typhimurium [11], 0.9; in the data set with Salmonella typhimurium [12], 0.8; with Salmonella typhimurium [13] it was 1.2. Moreover, the Activity_index in the data set with Salmonella typhimurium [14] worked out at 0.9; in the data set on Salmonella typhimurium [15], 1; in the data set with Salmonella typhimurium [16], 0.8; with Salmonella typhimurium [17], 1.1; with Salmonella typhimurium [18] it was 1.
Regarding `CCOC(=O)c1cn(CCCCCCCCCOS(C)(=O)=O)nn1`, the Activity_index in the data set with Salmonella typhimurium [19] worked out at 1.2; in the data set with Salmonella typhimurium [20], 1.2; in the data set on Salmonella typhimurium [21], 1.3; with Salmonella typhimurium [22], 1; in the data set with Salmonella typhimurium [23] it was 0.9; in the data set with Salmonella typhimurium [24], 1.8. For the same compound, the Activity_index with Salmonella typhimurium [25] was determined as 0.8; in the data set on Salmonella typhimurium [26], 1.2; in the data set with Salmonella typhimurium [27], 1.1; in the data set on Salmonella typhimurium [28], 0.9; with Salmonella typhimurium [29], 1.3; in the data set with Salmonella typhimurium [30], 1.4. Further, the Activity entry in [31] is reported as “Non-toxic”.
